Key:
PI3K delta = PI3K delta (Homo sapiens (Human), UniProt O00329); assay: Enzymatic PI3K delta isoform inhibition (lipid kinase activity, Kinase-Glo luminescence); assay type: biochemical; details: Enzymatic assay
Method in brief: (§1)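 IC50s derive from 4-parameter logistic fits of % inhibition across 8 concentrations (usually 10 to 0.003 μM). Lipid kinase reaction: PI3K (10 nM) plus phosphatidylinositol (5 μg/mL) started with 2 μM ATP, stopped near 50% ATP depletion; leftover ATP quantified by Kinase-Glo luminescence.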

PI3K alpha = PI3K alpha (Homo sapiens (Human), UniProt P42336); assay: Enzymatic PI3K alpha isoform inhibition (lipid kinase activity, Kinase-Glo luminescence); assay type: biochemical; details: Enzymatic assay
Chain of PI3K alpha (P42336 other isoform, or with tags, fused parts or gaps): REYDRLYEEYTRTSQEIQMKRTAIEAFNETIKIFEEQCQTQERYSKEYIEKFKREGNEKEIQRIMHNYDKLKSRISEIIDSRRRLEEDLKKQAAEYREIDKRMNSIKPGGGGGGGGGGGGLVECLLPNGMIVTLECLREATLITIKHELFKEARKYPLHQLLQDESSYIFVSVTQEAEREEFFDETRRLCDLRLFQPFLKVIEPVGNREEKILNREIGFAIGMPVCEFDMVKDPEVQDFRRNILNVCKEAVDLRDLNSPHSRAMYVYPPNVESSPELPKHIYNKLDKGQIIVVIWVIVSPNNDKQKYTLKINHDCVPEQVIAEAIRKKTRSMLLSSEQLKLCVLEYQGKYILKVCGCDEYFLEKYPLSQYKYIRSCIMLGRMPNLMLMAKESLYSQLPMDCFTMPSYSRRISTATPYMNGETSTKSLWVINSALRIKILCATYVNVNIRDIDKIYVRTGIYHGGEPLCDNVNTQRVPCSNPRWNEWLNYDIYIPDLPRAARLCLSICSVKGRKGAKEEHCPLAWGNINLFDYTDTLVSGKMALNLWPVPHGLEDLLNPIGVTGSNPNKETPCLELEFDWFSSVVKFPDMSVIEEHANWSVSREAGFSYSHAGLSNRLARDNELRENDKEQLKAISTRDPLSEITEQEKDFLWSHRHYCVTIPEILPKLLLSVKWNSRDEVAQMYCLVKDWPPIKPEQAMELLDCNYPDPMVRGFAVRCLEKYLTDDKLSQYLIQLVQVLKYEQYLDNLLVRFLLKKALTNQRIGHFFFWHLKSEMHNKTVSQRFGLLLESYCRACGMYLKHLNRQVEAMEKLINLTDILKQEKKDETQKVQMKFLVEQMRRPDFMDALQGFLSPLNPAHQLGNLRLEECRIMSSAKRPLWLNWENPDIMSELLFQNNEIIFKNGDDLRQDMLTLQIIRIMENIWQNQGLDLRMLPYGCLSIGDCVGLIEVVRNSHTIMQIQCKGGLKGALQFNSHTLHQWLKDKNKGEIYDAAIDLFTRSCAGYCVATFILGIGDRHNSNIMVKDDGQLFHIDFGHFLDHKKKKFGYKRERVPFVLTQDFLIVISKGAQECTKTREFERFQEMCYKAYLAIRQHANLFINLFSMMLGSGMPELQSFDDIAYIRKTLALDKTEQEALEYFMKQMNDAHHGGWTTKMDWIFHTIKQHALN
Method in brief: as §1

Chain of PI3K delta (O00329 other isoform, or with tags, fused parts or gaps linker GGGGGG): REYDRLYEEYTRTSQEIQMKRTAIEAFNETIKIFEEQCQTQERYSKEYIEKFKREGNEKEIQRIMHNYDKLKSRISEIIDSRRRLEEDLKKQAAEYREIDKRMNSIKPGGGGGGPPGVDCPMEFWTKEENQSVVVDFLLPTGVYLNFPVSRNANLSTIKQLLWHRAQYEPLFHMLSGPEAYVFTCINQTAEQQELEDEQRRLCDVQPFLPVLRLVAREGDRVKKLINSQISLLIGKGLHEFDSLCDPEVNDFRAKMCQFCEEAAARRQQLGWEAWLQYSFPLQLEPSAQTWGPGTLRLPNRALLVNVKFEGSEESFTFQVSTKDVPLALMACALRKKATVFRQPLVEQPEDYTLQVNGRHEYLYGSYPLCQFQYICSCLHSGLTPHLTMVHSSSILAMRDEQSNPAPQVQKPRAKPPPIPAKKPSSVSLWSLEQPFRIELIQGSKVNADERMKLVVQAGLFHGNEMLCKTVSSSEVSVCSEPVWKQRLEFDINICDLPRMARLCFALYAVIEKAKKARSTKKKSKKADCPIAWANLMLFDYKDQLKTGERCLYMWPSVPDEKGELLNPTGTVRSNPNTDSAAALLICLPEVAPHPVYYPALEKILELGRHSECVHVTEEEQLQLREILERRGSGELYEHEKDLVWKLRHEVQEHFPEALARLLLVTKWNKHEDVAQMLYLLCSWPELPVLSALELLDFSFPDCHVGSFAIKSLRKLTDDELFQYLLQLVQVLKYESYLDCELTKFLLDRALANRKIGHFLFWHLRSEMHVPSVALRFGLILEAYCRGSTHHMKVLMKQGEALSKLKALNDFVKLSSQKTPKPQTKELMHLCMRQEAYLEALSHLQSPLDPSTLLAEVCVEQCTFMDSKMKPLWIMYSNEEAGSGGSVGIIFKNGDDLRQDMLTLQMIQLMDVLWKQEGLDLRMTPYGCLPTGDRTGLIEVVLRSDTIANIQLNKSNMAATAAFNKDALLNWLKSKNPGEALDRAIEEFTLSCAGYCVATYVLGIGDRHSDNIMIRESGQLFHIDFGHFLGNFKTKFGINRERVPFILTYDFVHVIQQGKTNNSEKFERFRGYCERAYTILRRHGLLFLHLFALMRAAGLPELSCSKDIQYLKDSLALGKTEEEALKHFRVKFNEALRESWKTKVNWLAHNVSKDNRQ

| Compound | IC50 (PI3K delta) [µM] | IC50 (PI3K alpha) [µM] |
| --- | --- | --- |
| COCC(=O)N1CC[C@H](Oc2ccc3c(c2)N(c2cnc(OC)c(OC)c2)CCO3)C1 [Example B44, 1-{(S)-3-[4-(5,6-Dimethoxy-pyridin-3-yl)-3,4-dihydro-2H-benzo[1,4]oxazin-6-yloxy]-pyrrolidin-1-yl}-2-methoxy-ethanone] | 0.022 | 0.071 |
| COc1cc(N2CCOc3ccc(O[C@H]4CCN(C(=O)CCS(C)(=O)=O)C4)cc32)cnc1OC [Example B45, 1-{(S)-3-[4-(5,6-Dimethoxy-pyridin-3-yl)-3,4-dihydro-2H-benzo[1,4]oxazin-6-yloxy]-pyrrolidin-1-yl}-3-methanesulfonyl-propan-1-one] | 0.0745 | 0.574 |
| COCCC(=O)N1CC[C@H](Oc2ccc3c(c2)N(c2cnc(OC)c(OC)c2)CCO3)C1 [Example B46, 1-{(S)-3-[4-(5,6-Dimethoxy-pyridin-3-yl)-3,4-dihydro-2H-benzo[1,4]oxazin-6-yloxy]-pyrrolidin-1-yl}-3-methoxy-propan-1-one] | 0.227 | 2.08 |
| COc1cc(N2CCOc3ccc(O[C@H]4CCN(C(=O)C5CCS(=O)(=O)CC5)C4)cc32)cnc1OC [Example B47, {(S)-3-[4-(5,6-Dimethoxy-pyridin-3-yl)-3,4-dihydro-2H-benzo[1,4]oxazin-6-yloxy]-pyrrolidin-1-yl}-(1,1-dioxo-hexahydro-1lambda*6*-thiopyran-4-yl)-methanone] | 0.0107 | 0.241 |
| COc1cc(N2CCOc3ccc(O[C@H]4CCN(C(=O)c5cn(C)cn5)C4)cc32)cnc1OC [Example B48, {(S)-3-[4-(5,6-Dimethoxy-pyridin-3-yl)-3,4-dihydro-2H-benzo[1,4]oxazin-6-yloxy]-pyrrolidin-1-yl}-(1-methyl-1H-imidazol-4-yl)-methanone] | 0.007 | 0.109 |
| Cc1cc(N2CCOc3ccc(O[C@H]4CCN(C(=O)C5CCCCC5)C4)cc32)cnc1S(C)(=O)=O [Example B49, Cyclohexyl-{(S)-3-[4-(6-methanesulfonyl-5-methyl-pyridin-3-yl)-3,4-dihydro-2H-benzo[1,4]oxazin-6-yloxy]-pyrrolidin-1-yl}-methanone] | 0.007 | 0.45 |
| Cc1cc(N2CCOc3ccc(O[C@H]4CCN(C(=O)[C@H]5CC[C@H](O)CC5)C4)cc32)cnc1S(C)(=O)=O [Example B50, (4-Hydroxy-cyclohexyl)-{(S)-3-[4-(6-methanesulfonyl-5-methyl-pyridin-3-yl)-3,4-dihydro-2H-benzo[1,4]oxazin-6-yloxy]-pyrrolidin-1-yl}-methanone] | 0.013 | 0.933 |
| Cc1cc(N2CCOc3ccc(O[C@H]4CCN(C(=O)[C@H]5CC[C@@H](O)CC5)C4)cc32)cnc1S(C)(=O)=O [Example B51, (4-Hydroxy-cyclohexyl)-{(S)-3-[4-(6-methanesulfonyl-5-methyl-pyridin-3-yl)-3,4-dihydro-2H-benzo[1,4]oxazin-6-yloxy]-pyrrolidin-1-yl}-methanone] | 0.01 | 1.03 |
| Cc1cc(N2CCOc3ccc(O[C@H]4CCN(C(=O)C5CCOC5)C4)cc32)cnc1S(C)(=O)=O (stereo partly drawn) [Example B52, {(S)-3-[4-(6-Methanesulfonyl-5-methyl-pyridin-3-yl)-3,4-dihydro-2H-benzo[1,4]oxazin-6-yloxy]-pyrrolidin-1-yl}-(tetrahydro-furan-3-yl)-methanone] | < 0.003 | 0.556 |
| Cc1cc(N2CCOc3ccc(O[C@H]4CCN(C(=O)C5CCOC5)C4)cc32)cnc1S(C)(=O)=O (stereo partly drawn) [Example B53, {(S)-3-[4-(6-Methanesulfonyl-5-methyl-pyridin-3-yl)-3,4-dihydro-2H-benzo[1,4]oxazin-6-yloxy]-pyrrolidin-1-yl}-(tetrahydro-furan-3-yl)-methanone] | 0.0045 | 0.343 |
| COc1cc(N2CCOc3ccc(O[C@H]4CCN(C(=O)C5CCOCC5)C4)cc32)cnc1Cl [Example B54, {(S)-3-[4-(6-Chloro-5-methoxy-pyridin-3-yl)-3,4-dihydro-2H-benzo[1,4]oxazin-6-yloxy]-pyrrolidin-1-yl}-(tetrahydro-pyran-4-yl)-methanone] | 0.011 | 0.756 |
| CCC(=O)N1CC[C@H](Oc2ccc3c(c2)N(c2cnc(Cl)c(OC)c2)CCO3)C1 [Example B55, 1-{(S)-3-[4-(6-Chloro-5-methoxy-pyridin-3-yl)-3,4-dihydro-2H-benzo[1,4]oxazin-6-yloxy]-pyrrolidin-1-yl}-propan-1-one] | 0.065 | 3.85 |
| COc1cc(N2CCOc3ccc(O[C@H]4CCN(C(=O)C5CCS(=O)(=O)CC5)C4)cc32)cnc1Cl [Example B56, {(S)-3-[4-(6-Chloro-5-methoxy-pyridin-3-yl)-3,4-dihydro-2H-benzo[1,4]oxazin-6-yloxy]-pyrrolidin-1-yl}-(1,1-dioxo-hexahydro-1lambda*6*-thiopyran-4-yl)-methanone] | 0.023 | 1.42 |
| COc1cc(N2CCOc3ccc(O[C@H]4CCN(C(=O)CCO)C4)cc32)cnc1Cl [Example B57, 1-{(S)-3-[4-(6-Chloro-5-methoxy-pyridin-3-yl)-3,4-dihydro-2H-benzo[1,4]oxazin-6-yloxy]-pyrrolidin-1-yl}-3-hydroxy-propan-1-one] | 0.095 | 2.27 |
| Cc1cc(N2CCOc3ccc(O[C@H]4CCN(C(=O)C5CCOCC5)C4)cc32)cnc1Cl [Example B58, {(S)-3-[4-(6-Chloro-5-methyl-pyridin-3-yl)-3,4-dihydro-2H-benzo[1,4]oxazin-6-yloxy]-pyrrolidin-1-yl}-(tetrahydro-pyran-4-yl)-methanone] | 0.004 | 0.366 |
| CCC(=O)N1CC[C@H](Oc2ccc3c(c2)N(c2cnc(Cl)c(C)c2)CCO3)C1 [Example B59, 1-{(S)-3-[4-(6-Chloro-5-methyl-pyridin-3-yl)-3,4-dihydro-2H-benzo[1,4]oxazin-6-yloxy]-pyrrolidin-1-yl}-propan-1-one] | 0.017 | 0.461 |
| Cc1cc(N2CCOc3ccc(O[C@H]4CCN(C(=O)C5CCS(=O)(=O)CC5)C4)cc32)cnc1Cl [Example B60, {(S)-3-[4-(6-Chloro-5-methyl-pyridin-3-yl)-3,4-dihydro-2H-benzo[1,4]oxazin-6-yloxy]-pyrrolidin-1-yl}-(1,1-dioxo-hexahydro-1lambda*6*-thiopyran-4-yl)-methanone] | 0.011 | 0.463 |
| Cc1cc(N2CCOc3ccc(O[C@H]4CCN(C(=O)CCO)C4)cc32)cnc1Cl [Example B61, 1-{(S)-3-[4-(6-Chloro-5-methyl-pyridin-3-yl)-3,4-dihydro-2H-benzo[1,4]oxazin-6-yloxy]-pyrrolidin-1-yl}-3-hydroxy-propan-1-one] | 0.037 | 0.732 |

Results, then the compound that gave them:

| IC50 (PI3K delta) [µM] | IC50 (PI3K alpha) [µM] | Compound |
| --- | --- | --- |
| 0.068 | 1.52 | COc1cc(N2CCOc3ccc(O[C@H]4CCN(C(=O)c5ccc(=O)[nH]c5)C4)cc32)cnc1Cl [Example B63, 5-{(S)-3-[4-(6-Chloro-5-methoxy-pyridin-3-yl)-3,4-dihydro-2H-benzo[1,4]oxazin-6-yloxy]-pyrrolidine-1-carbonyl}-1H-pyridin-2-one] |
| 0.011 | 0.446 | COc1cc(N2CCOc3ccc(O[C@H]4CCN(C(=O)[C@H]5CC[C@H](O)CC5)C4)cc32)cnc1OC [Example B66, {(S)-3-[4-(5,6-Dimethoxy-pyridin-3-yl)-3,4-dihydro-2H-benzo[1,4]oxazin-6-yloxy]-pyrrolidin-1-yl}-(4-hydroxy-cyclohexyl)-methanone] |
| 0.025 | 0.804 | Cc1cnccc1C(=O)N1CC[C@H](Oc2ccc3c(c2)N(c2cnc(S(C)(=O)=O)c(C)c2)CCO3)C1 [Example B67, {(S)-3-[4-(6-Methanesulfonyl-5-methyl-pyridin-3-yl)-3,4-dihydro-2H-benzo[1,4]oxazin-6-yloxy]-pyrrolidin-1-yl}-(3-methyl-pyridin-4-yl)-methanone] |
| 0.039 | 0.84 | Cc1cc(N2CCOc3ccc(O[C@H]4CCN(C(=O)Cc5ccncc5)C4)cc32)cnc1S(C)(=O)=O [Example B68, 1-{(S)-3-[4-(6-Methanesulfonyl-5-methyl-pyridin-3-yl)-3,4-dihydro-2H-benzo[1,4]oxazin-6-yloxy]-pyrrolidin-1-yl}-2-pyridin-4-yl-ethanone] |
| 0.005 | 0.189 | CS(=O)(=O)c1ncc(N2CCOc3ccc(O[C@H]4CCN(C(=O)C5CCOCC5)C4)cc32)cc1C(F)(F)F [Example B69, {(S)-3-[4-(6-Methanesulfonyl-5-trifluoromethyl-pyridin-3-yl)-3,4-dihydro-2H-benzo[1,4]oxazin-6-yloxy]-pyrrolidin-1-yl}-(tetrahydro-pyran-4-yl)-methanone] |
| 0.003 | 0.134 | CS(=O)(=O)c1ncc(N2CCOc3ccc(O[C@H]4CCN(C(=O)C5CCOCC5)C4)cc32)cc1C(F)F [Example B70, {(S)-3-[4-(5-Difluoromethyl-6-methanesulfonyl-pyridin-3-yl)-3,4-dihydro-2H-benzo[1,4]oxazin-6-yloxy]-pyrrolidin-1-yl}-(tetrahydro-pyran-4-yl)-methanone] |
| 0.0055 | 0.36 | CS(=O)(=O)c1ncc(N2CCOc3ccc(O[C@H]4CCN(C(=O)C5CCOCC5)C4)cc32)cc1CF [Example B71, {(S)-3-[4-(5-Fluoromethyl-6-methanesulfonyl-pyridin-3-yl)-3,4-dihydro-2H-benzo[1,4]oxazin-6-yloxy]-pyrrolidin-1-yl}-(tetrahydro-pyran-4-yl)-methanone] |
| 0.032 | 2.06 | Cc1cc(N2CCOc3ccc(O[C@H]4CCN(C(=O)C5CCOCC5)C4)cc32)cnc1OC(F)F [Example B72, {(S)-3-[4-(6-Difluoromethoxy-5-methyl-pyridin-3-yl)-3,4-dihydro-2H-benzo[1,4]oxazin-6-yloxy]-pyrrolidin-1-yl}-(tetrahydro-pyran-4-yl)-methanone] |
